We go through 33 compounds from patent publication US11827628B2, “Compositions and methods for inhibition of the JAK pathway” (Rigel Pharmaceuticals, Inc., priority 2005, dated 2023).

Structures are written as SMILES.

This test has as its system up-regulation of ICAM-1 (CD54) by IFNγ in U937 human monocytic cells. The experiment in a line: U937 IFNγ ICAM1 FACS Assay. In kind it is cell-based. As to conditions: Homo sapiens, U-937, U937 cells stimulated with IFNγ, ICAM-1 expression by FACS; read-out: IC50, Example 44. The method in brief: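 Readout was the geometric-mean APC anti-ICAM-1 signal by FACS on live U937 monocytic cells, with % live cells also recorded. Cells were exposed to compounds (8 points, 3-fold dilutions, duplicates) for 30 min at 37 °C before 18–24 h of IFNγ stimulation. EC50 values were computed from the dose curve.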
In general terms: In flow cytometry, cells or beads pass a laser one at a time.
In general, IC50 refers to the point on the concentration scale where inhibition reaches its midpoint. In the case of `COc1cc(Nc2nc(Nc3ccc(S(N)(=O)=O)cc3)ncc2F)cc(OCC#N)c1OC` [Compound I-1, N2-(4-Aminosulphonylphenyl)-N4-(3-cyanomethoxy-4,5-dimethoxyphenyl)-5-fluoro-2,4-pyrimidinediamine], the concentration for half-maximal inhibition (IC50) came out at 35.3 µM. For `N#CCOc1ccc(Nc2nc(Nc3ccc(S(N)(=O)=O)cc3)ncc2F)cc1F` [Compound I-44, N2-(4-Aminosulfonylphenyl)-N4-(4-cyanomethoxy-3-fluorophenyl)-5-fluoro-2,4-pyrimidinediamine] the value was 5.07 µM; for `COc1cc(Nc2nc(Nc3ccc(S(N)(=O)=O)cc3)ncc2F)ccc1OCC#N` [Compound I-45, N2-(4-Aminosulfonylphenyl)-N4-(4-cyanomethoxy-3-methoxyphenyl)-5-fluoro-2,4-pyrimidinediamine], 3.64 µM; for `COc1cc(Nc2nc(Nc3cccc(S(N)(=O)=O)c3)ncc2F)ccc1OCC#N` [Compound I-46, N2-(3-Aminosulfonylphenyl)-N4-(4-cyanomethoxy-3-methoxyphenyl)-5-fluoro-2,4-pyrimidinediamine], 0.751 µM. The same measure for `COc1cc(Nc2nc(Nc3ccc(C)c(S(N)(=O)=O)c3)ncc2F)ccc1OCC#N` [Compound I-47, N2-(3-Aminosulfonyl-4-methylphenyl)-N4-(4-cyanomethoxy-3-methoxyphenyl)-5-fluoro-2,4-pyrimidinediamine]: 0.759 µM; for `Cc1ccc(Nc2ncc(F)c(Nc3ccc(OCC#N)c(CO)c3)n2)cc1S(N)(=O)=O` [Compound I-51, N2-(3-Aminosulfonyl-4-methylphenyl)-N4-(4-cyanomethoxy-3-hydroxymethylphenyl)-5-fluoro-2,4-pyrimidinediamine]: 32.2 µM; for `N#CCOc1ccc(Nc2nc(Nc3ccc(S(N)(=O)=O)cc3)ncc2F)cc1-c1ccn(CC#N)n1` [Compound I-52, N2-(4-Aminosulfonylphenyl)-N4-[4-cyanomethoxy-3-(1-cyanomethylpyrazol-3-yl)phenyl]-5-fluoro-2,4-pyrimidinediamine]: 68.7 µM. For `COc1ccc(Nc2ncc(F)c(Nc3ccc(OCC#N)cc3)n2)cc1S(N)(=O)=O` [Compound I-56, N2-(3-Aminosulfonyl-4-methoxyphenyl)-N4-(4-cyanomethoxyphenyl)-5-fluoro-2,4-pyrimidinediamine] the value was 0.424 µM.

Regarding `Cc1cnc(Nc2cccc(S(N)(=O)=O)c2)nc1Nc1ccc(OCC#N)cc1` [Compound I-58, N2-(3-Aminosulfonylphenyl)-N4-(4-cyanomethoxyphenyl)-5-methyl-2,4-pyrimidinediamine], the IC50 was determined as 0.066 µM. For `Cc1ccc(Nc2ncc(C)c(Nc3ccc(OCC#N)cc3)n2)cc1S(N)(=O)=O` [Compound I-59, N2-(3-Aminosulfonyl-4-methylphenyl)-N4-(4-cyanomethoxyphenyl)-5-methyl-2,4-pyrimidinediamine] the value was 0.0577 µM; for `NC(=O)COc1ccc(Nc2nc(Nc3ccc(S(N)(=O)=O)cc3)ncc2F)cc1Cl` [Compound I-97, N4-(4-Aminocarbonylmethoxy-3-chlorophenyl)-N2-(4-aminosulfonylphenyl)-5-fluoro-2,4-pyrimidinediamine], 27.4 µM; for `NC(=O)COc1ccc(Nc2nc(Nc3cccc(S(N)(=O)=O)c3)ncc2F)cc1Cl` [Compound I-98, N4-(4-Aminocarbonylmethoxy-3-chlorophenyl)-N2-(3-aminosulfonylphenyl)-5-fluoro-2,4-pyrimidinediamine], 11 µM. The same measure for `Cc1ccc(Nc2ncc(F)c(Nc3ccc(OCC(N)=O)c(Cl)c3)n2)cc1S(N)(=O)=O` [Compound I-99, N4-(4-Aminocarbonylmethoxy-3-chlorophenyl)-N2-(3-aminosulfonyl-4-methylphenyl)-5-fluoro-2,4-pyrimidinediamine]: 3.78 µM; for `NC(=O)COc1ccc(Nc2nc(Nc3cccc(S(N)(=O)=O)c3)ncc2F)cc1F` [Compound I-101, N4-(4-Aminocarbonylmethoxy-3-fluorophenyl)-N2-(3-aminosulfonylphenyl)-5-fluoro-2,4-pyrimidinediamine]: 36.6 µM. As for `Cc1ccc(Nc2ncc(F)c(Nc3ccc(OCC(N)=O)c(F)c3)n2)cc1S(N)(=O)=O` [Compound I-102, N4-(4-Aminocarbonylmethoxy-3-fluorophenyl)-N2-(3-aminosulfonyl-4-methylphenyl)-5-fluoro-2,4-pyrimidinediamine], the IC50 was 15.6 µM. In the case of `Cc1cnc(Nc2ccc(S(N)(=O)=O)cc2)nc1Nc1ccc(OCC(N)=O)cc1` [Compound I-108, N4-(4-Aminocarbonylmethoxyphenyl)-N2-(4-aminosulfonylphenyl)-5-methyl-2,4-pyrimidinediamine], the IC50 amounted to 3.97 µM. For the compound `Cc1cnc(Nc2cccc(S(N)(=O)=O)c2)nc1Nc1ccc(OCC(N)=O)cc1` [Compound I-109, N4-(4-Aminocarbonylmethoxyphenyl)-N2-(3-aminosulfonylphenyl)-5-methyl-2,4-pyrimidinediamine], the IC50 amounted to 9.94 µM. Consider `Cc1ccc(Nc2ncc(C)c(Nc3ccc(OCC(N)=O)cc3)n2)cc1S(N)(=O)=O` [Compound I-110, N4-(4-Aminocarbonylmethoxyphenyl)-N2-(3-aminosulfonyl-4-methylphenyl)-5-methyl-2,4-pyrimidinediamine], for which the IC50 stood at 3.93 µM.

As for `CN(C)C(=O)COc1ccc(Nc2nc(Nc3ccc(S(N)(=O)=O)cc3)ncc2F)cc1Cl` [Compound I-131, N2-(4-Aminosulfonylphenyl)-N4-(3-chloro-4-dimethylaminocarbonylmethoxyphenyl)-5-fluoro-2,4-pyrimidinediamine], the IC50 was determined as 2.99 µM. In the case of `CN(C)C(=O)COc1ccc(Nc2nc(Nc3cccc(S(N)(=O)=O)c3)ncc2F)cc1Cl` [Compound I-132, N2-(3-Aminosulfonylphenyl)-N4-(3-chloro-4-dimethylaminocarbonylmethoxyphenyl)-5-fluoro-2,4-pyrimidinediamine], the IC50 was 2.72 µM. The same measure for `Cc1cnc(Nc2ccc(S(N)(=O)=O)cc2)nc1Nc1ccc(OCC(=O)N(C)C)c(Cl)c1` [Compound I-134, N2-(4-Aminosulfonylphenyl)-N4-(3-chloro-4-dimethylaminocarbonylmethoxyphenyl)-5-methyl-2,4-pyrimidinediamine]: 3.24 µM; for `Cc1cnc(Nc2cccc(S(N)(=O)=O)c2)nc1Nc1ccc(OCC(=O)N(C)C)c(Cl)c1` [Compound I-135, N2-(3-Aminosulfonylphenyl)-N4-(3-chloro-4-dimethylaminocarbonylmethoxyphenyl)-5-methyl-2,4-pyrimidinediamine]: 1.83 µM; for `Cc1ccc(Nc2ncc(C)c(Nc3ccc(OCC(=O)N(C)C)c(Cl)c3)n2)cc1S(N)(=O)=O` [Compound I-136, N2-(3-Aminosulfonyl-4-methylphenyl)-N4-(3-chloro-4-dimethylaminocarbonylmethoxyphenyl)-5-methyl-2,4-pyrimidinediamine]: 1.64 µM. As to `Cc1cnc(Nc2ccc(S(N)(=O)=O)cc2)nc1Nc1ccc(OCC(=O)N(C)C)c(F)c1` [Compound I-137, N2-(4-Aminosulfonylphenyl)-N4-(4-dimethylaminocarbonylmethoxy-3-fluorophenyl)-5-methyl-2,4-pyrimidinediamine], the half-inhibitory concentration (IC50) amounted to 29.6 µM. For `Cc1cnc(Nc2cccc(S(N)(=O)=O)c2)nc1Nc1ccc(OCC(=O)N(C)C)c(F)c1` [Compound I-138, N2-(3-Aminosulfonylphenyl)-N4-(4-dimethylaminocarbonylmethoxy-3-fluorophenyl)-5-methyl-2,4-pyrimidinediamine] the value was 9.47 µM; for `Cc1ccc(Nc2ncc(C)c(Nc3ccc(OCC(=O)N(C)C)c(F)c3)n2)cc1S(N)(=O)=O` [Compound I-139, N2-(3-Aminosulfonyl-4-methylphenyl)-N4-(4-dimethylaminocarbonylmethoxy-3-fluorophenyl)-5-methyl-2,4-pyrimidinediamine], 3.26 µM; for `CNC(=O)COc1ccc(Nc2nc(Nc3ccc(S(N)(=O)=O)cc3)ncc2C)cc1Cl` [Compound I-149, N2-(4-Aminosulfonylphenyl)-N4-(3-chloro-4-methylaminocarbonylmethoxyphenyl)-5-methyl-2,4-pyrimidinediamine], 14.7 µM. For `CNC(=O)COc1ccc(Nc2nc(Nc3cccc(S(N)(=O)=O)c3)ncc2C)cc1Cl` [Compound I-150, N2-(3-Aminosulfonylphenyl)-N4-(3-chloro-4-methylaminocarbonylmethoxyphenyl)-5-methyl-2,4-pyrimidinediamine] the value was 10.5 µM; for `CNC(=O)COc1ccc(Nc2nc(Nc3cccc(S(N)(=O)=O)c3)ncc2C)cc1F` [Compound I-155, N2-(3-Aminosulfonylphenyl)-N4-(3-fluoro-4-methylaminocarbonylmethoxyphenyl)-5-methyl-2,4-pyrimidinediamine], 65.1 µM; for `CNC(=O)COc1ccc(Nc2nc(Nc3ccc(C)c(S(N)(=O)=O)c3)ncc2C)cc1F` [Compound I-156, N2-(3-Aminosulfonyl-4-methylphenyl)-N4-(3-fluoro-4-methylaminocarbonylmethoxyphenyl)-5-methyl-2,4-pyrimidinediamine], 2.62 µM. For `C=CCNC(=O)COc1ccc(Nc2nc(Nc3cccc(S(N)(=O)=O)c3)ncc2F)cc1` [Compound I-158, N4-(4-Allylaminocarbonylmethoxyphenyl)-N2-(3-aminosulfonylphenyl)-5-fluoro-2,4-pyrimidinediamine] the value was 1.38 µM; for `C=CCNC(=O)COc1ccc(Nc2nc(Nc3ccc(C)c(S(N)(=O)=O)c3)ncc2F)cc1` [Compound I-159, N4-(4-Allylaminocarbonylmethoxyphenyl)-N2-(3-aminosulfonyl-4-methylphenyl)-5-fluoro-2,4-pyrimidinediamine], 1.63 µM. Take `Cc1ccc(Nc2ncc(F)c(Nc3ccc(OCc4cccnc4)cc3)n2)cc1S(N)(=O)=O` [Compound I-178, N2-(3-Aminosulfonyl-4-methylphenyl)-5-fluoro-N4-[4-(3-pyridylmethoxy)phenyl]-2,4-pyrimidinediamine]: the IC50 turned out to be 0.118 µM.
